Results: patent US20200078468A1, “NEUROTENSIN RECEPTOR BINDING CONJUGATES AND FORMULATIONS THEREOF” (priority 2016, published 2020)
pIC50, pKi: −log10 of the molar value. Square brackets hold non-standard residues; d marks the D form. Peptide text beside a SMILES is read from it. * marks the point of attachment. X3 = COc1cccc2c1C(=O)c1c(O)c3c(c(O)c1C2=O)C[C@@](O)(C(=O)CO)C[C@@H]3O[C@H]1C[C@H](NC(=O)OCCS*)[C@H](O)[C@H](C)O1; X4 = CCc1c2c(nc3ccc(O)cc13)-c1cc3c(c(=O)n1C2)COC(=O)[C@@]3(CC)OC(=O)OCCS*; Pen = CC(C)(S)[C@H](N)C(=O)O; Tle = CC(C)(C)[C@H](N)C(=O)O

Experiments:
[1] = test system: SW48 (human colon cancer cells); assay: inhibition of SW48 cell proliferation (CellTiter Glo); format: cell-based; conditions: NTSR1 targeted compound; 72 hrs; read-out: SW-48 proliferation IC50
Outline: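 Cells plated at 5,000/well and grown 24 hrs were exposed to conjugates for 72 hrs at 37° C, 5% CO2, in a ten-point three-fold series starting at 10 μM; vehicle was 0.01% DMSO. Proliferation was read by CellTiter Glo. % inhibition was taken relative to vehicle, with IC50 from four-parameter nonlinear regression.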

human NTSR1 = molecular target: T1, human NTSR1 (Homo sapiens, UniProt P30989); assay: radioligand-receptor binding assay, [125I] labeled neurotensin (Eurofins Panlabs); conditions: [125I] neurotensin 0.02 nM, membranes from NTSR1 expressing HEK-293 cells, 45 minute incubation, Cheng and Prusoff; read-out: NTSR1 binding Ki
T1 construct: host or cells: HEK-293 cells (membrane preparations)
T1 sequence (P30989 whole entry): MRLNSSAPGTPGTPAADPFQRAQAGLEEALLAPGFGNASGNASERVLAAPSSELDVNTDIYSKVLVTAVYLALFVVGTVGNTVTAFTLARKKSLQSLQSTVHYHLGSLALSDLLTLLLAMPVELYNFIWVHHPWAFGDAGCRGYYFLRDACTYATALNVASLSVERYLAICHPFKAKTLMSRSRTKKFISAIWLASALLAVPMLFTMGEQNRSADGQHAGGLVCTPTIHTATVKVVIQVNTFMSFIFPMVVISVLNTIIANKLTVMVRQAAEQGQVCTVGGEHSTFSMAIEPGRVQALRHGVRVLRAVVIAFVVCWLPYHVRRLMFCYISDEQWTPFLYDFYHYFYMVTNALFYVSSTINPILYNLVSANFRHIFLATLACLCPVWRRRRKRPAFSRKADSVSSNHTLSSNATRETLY
Description: Conjugates were assessed in an in vitro assay evaluating binding to NTSR1. A radioligand-receptor binding assay was conducted at Eurofins Panlabs (Taiwan) to determine the affinity of conjugates described herein to NTSR1. The assay measures binding of radiolabeled ligand, [^125I] labeled neurotensin, to human NTSR1 using membrane preparations from NTSR1 expressing HEK-293 cells (Human embryonic kidney cells 293). Membranes were incubated with radiolabeled neurotensin (0.02 nM) in the presence of conjugate/compound starting at a dose of either 100 nM, or 10 nM, using 3× serial dilutions to obtain a 6-pt curve. After a 45 minute incubation, membranes were filtered and washed 3× and counted to determine the remaining [^125I] neurotensin bound to the receptor. IC50 values were determined by a non-linear, least squares regression analysis using MathIQ™ (ID Business Solutions Ltd., UK). The Ki values were calculated using the equation of Cheng and Prusoff (Cheng and Prusoff, Biochem. Pharmacol. 22:3099-3108, 1973) using the observed IC50 of the tested conjugate/compound, the concentration of radioligand employed in the assay, and the historical values for the Kd of the ligand obtained at Eurofins.

SMILES	pIC50 [1]	pKi (human NTSR1)
COc1cc2cc(c1Cl)N(C)C(=O)C[C@H](OC(=O)[C@H](C)N(C)C(=O)CCSC1CC(=O)N(CCCNC(=O)CNC(=O)[C@H](CC(C)C)NC(=O)[C@H](Cc3ccccc3)NC(=O)CNC(=O)CCCCCN3C(=O)CC(SCCC(=O)NCCCC[C@H](NC(C)=O)C(=O)N4CCC[C@H]4C(=O)N[C@@H](CCCN)C(=O)N[C@@H](CCCNC(=N)N)C(=O)N4CCC[C@H]4C(=O)N[C@@H](Cc4ccc(O)cc4)C(=O)N[C@H](C(=O)N[C@@H](CC(C)C)C(=O)O)C(C)(C)C)C3=O)C1=O)[C@]1(C)O[C@H]1[C@H](C)[C@@H]1C[C@@](O)(NC(=O)O1)[C@H](OC)/C=C/C=C(\C)C2 (stereo partly shown) [Compound 37]	7.29	8.63
CCc1c2c(nc3ccc(O)cc13)-c1cc3c(c(=O)n1C2)COC(=O)[C@@]3(CC)OC(=O)OCc1ccc(NC(=O)[C@H](CCCNC(N)=O)NC(=O)[C@@H](NC(=O)CCCCCN2C(=O)CC(SC(C)(C)[C@H](NC(C)=O)C(=O)N3CCC[C@H]3C(=O)N[C@@H](CCCNC(=N)N)C(=O)N[C@@H](CCCNC(=N)N)C(=O)N3CCC[C@H]3C(=O)N[C@@H](Cc3ccc(O)cc3)C(=O)N[C@H](C(=O)N[C@@H](CC(C)C)C(=O)O)C(C)(C)C)C2=O)C(C)C)cc1 (stereo partly shown) [Compound 64]	7.18	8.69
COc1cccc2c1C(=O)c1c(O)c3c(c(O)c1C2=O)C[C@@](O)(C(=O)CO)C[C@@H]3O[C@H]1C[C@H](NC(=O)OCCSSC(C)(C)[C@H](NC(C)=O)C(=O)N2CCC[C@H]2C(=O)N[C@@H](CCCNC(=N)N)C(=O)N[C@@H](CCCNC(=N)N)C(=O)N2CCC[C@H]2C(=O)N[C@@H](Cc2ccc(O)cc2)C(=O)N[C@H](C(=O)N[C@@H](CC(C)C)C(=O)O)C(C)(C)C)[C@H](O)[C@H](C)O1 [Compound 51] (Ac-[Pen](X3)PRRPY[Tle]L-OH)	5.80	8.87
COc1cc2cc(c1Cl)N(C)C(=O)C[C@H](OC(=O)[C@H](C)N(C)C(=O)CCSC1CC(=O)N(CCCNC(=O)CNC(=O)[C@H](CC(C)C)NC(=O)[C@H](Cc3ccccc3)NC(=O)CNC(=O)CCCCCN3C(=O)CC(SCCC(=O)NCCCC[C@H](NC(C)=O)C(=O)N4CCC[C@H]4C(=O)N[C@H](CCCN)C(=O)N[C@@H](CCCNC(=N)N)C(=O)N4CCC[C@H]4C(=O)N[C@@H](Cc4ccc(O)cc4)C(=O)N[C@H](C(=O)N[C@@H](CC(C)C)C(=O)O)C(C)(C)C)C3=O)C1=O)[C@]1(C)O[C@H]1[C@H](C)[C@@H]1C[C@@](O)(NC(=O)O1)[C@H](OC)/C=C/C=C(\C)C2 (stereo partly shown) [Compound 35]	7.33	8.43
COc1cc2cc(c1Cl)N(C)C(=O)C[C@H](OC(=O)[C@H](C)N(C)C(=O)CCSC1CC(=O)N(CCCNC(=O)CNC(=O)[C@H](CC(C)C)NC(=O)[C@H](Cc3ccccc3)NC(=O)CNC(=O)CCCCCN3C(=O)CC(SC(C)(C)[C@H](NC(C)=O)C(=O)N4CCC[C@H]4C(=O)N(C)[C@@H](CCCNC(=N)N)C(=O)N[C@@H](CCCNC(=N)N)C(=O)N4CCC[C@H]4C(=O)N[C@@H](Cc4ccc(O)cc4)C(=O)N[C@H](C(=O)N[C@@H](CC(C)C)C(=O)O)C(C)(C)C)C3=O)C1=O)[C@]1(C)O[C@H]1[C@H](C)[C@@H]1C[C@@](O)(NC(=O)O1)[C@H](OC)/C=C/C=C(\C)C2 (stereo partly shown) [Compound 20]	8.17	9.03
CCc1c2c(nc3ccc(O)cc13)-c1cc3c(c(=O)n1C2)COC(=O)[C@@]3(CC)OC(=O)OCCSSC(C)(C)[C@H](NC(C)=O)C(=O)N1CCC[C@H]1C(=O)N[C@@H](CCCNC(=N)N)C(=O)N[C@@H](CCCNC(=N)N)C(=O)N1CCC[C@H]1C(=O)N[C@@H](Cc1ccc(O)cc1)C(=O)N[C@H](C(=O)N[C@@H](CC(C)C)C(=O)O)C(C)(C)C [Compound 63] (Ac-[Pen](X4)PRRPY[Tle]L-OH)	6.65	8.72
COc1cc2cc(c1Cl)N(C)C(=O)C[C@H](OC(=O)[C@H](C)N(C)C(=O)CCSC1CC(=O)N(CCCNC(=O)CNC(=O)[C@H](CC(C)C)NC(=O)[C@H](Cc3ccccc3)NC(=O)CNC(=O)CCCCCN3C(=O)CC(SCCC(=O)NCCCC[C@H](NC(C)=O)C(=O)N4CCC[C@H]4C(=O)N[C@H](CCCN)C(=O)N[C@@H](CCN)C(=O)N4CCC[C@H]4C(=O)N[C@@H](Cc4ccc(O)cc4)C(=O)N[C@H](C(=O)N[C@@H](CC(C)C)C(=O)O)C(C)(C)C)C3=O)C1=O)[C@]1(C)O[C@H]1[C@H](C)[C@@H]1C[C@@](O)(NC(=O)O1)[C@H](OC)/C=C/C=C(\C)C2 (stereo partly shown) [Compound 34]	7.15	8.22
COc1cc2cc(c1Cl)N(C)C(=O)C[C@H](OC(=O)[C@H](C)N(C)C(=O)CCSC1CC(=O)N(CCCNC(=O)CNC(=O)[C@H](CC(C)C)NC(=O)[C@H](Cc3ccccc3)NC(=O)CNC(=O)CCCCCN3C(=O)CC(SCCC(=O)NCCCC[C@H](NC(C)=O)C(=O)N4CCC[C@H]4C(=O)N[C@@H](CCCN)C(=O)N[C@@H](CCN)C(=O)N4CCC[C@H]4C(=O)N[C@@H](Cc4ccc(O)cc4)C(=O)N[C@H](C(=O)N[C@@H](CC(C)C)C(=O)O)C(C)(C)C)C3=O)C1=O)[C@]1(C)O[C@H]1[C@H](C)[C@@H]1C[C@@](O)(NC(=O)O1)[C@H](OC)/C=C/C=C(\C)C2 (stereo partly shown) [Compound 36]	7.30	8.32
COc1cc2cc(c1Cl)N(C)C(=O)C[C@H](OC(=O)[C@H](C)N(C)C(=O)CCSC1CC(=O)N(CCCNC(=O)CNC(=O)[C@H](CC(C)C)NC(=O)[C@H](Cc3ccccc3)NC(=O)CNC(=O)CCCCCN3C(=O)CC(SC(C)(C)[C@H](NC(C)=O)C(=O)N4CCC[C@H]4C(=O)N[C@@H](CCCNC(=N)N)C(=O)N(C)[C@@H](CCCNC(=N)N)C(=O)N4CCC[C@H]4C(=O)N[C@@H](Cc4ccc(O)cc4)C(=O)N[C@H](C(=O)N[C@@H](CC(C)C)C(=O)O)C(C)(C)C)C3=O)C1=O)[C@]1(C)O[C@H]1[C@H](C)[C@@H]1C[C@@](O)(NC(=O)O1)[C@H](OC)/C=C/C=C(\C)C2 (stereo partly shown) [Compound 17]	8.41	7.97
COc1cc2cc(c1Cl)N(C)C(=O)C[C@H](OC(=O)[C@H](C)N(C)C(=O)CCSC1CC(=O)N(CCCNC(=O)CNC(=O)[C@H](CC(C)C)NC(=O)[C@H](Cc3ccccc3)NC(=O)CNC(=O)CCCCCN3C(=O)CC(SC(C)(C)[C@H](NC(C)=O)C(=O)N4CCC[C@H]4C(=O)N[C@@H](CCCNC(=N)N)C(=O)N[C@@H](CCCNC(=N)N)C(=O)N4CCC[C@H]4C(=O)N[C@@H](Cc4ccc(O)cc4)C(=O)N[C@H](C(=O)N[C@@H](CC(C)C)C(=O)O)C(C)(C)C)C3=O)C1=O)[C@]1(C)O[C@H]1[C@H](C)[C@@H]1C[C@@](O)(NC(=O)O1)[C@H](OC)/C=C/C=C(\C)C2 (stereo partly shown) [Compound 16]	7.82	8.79
COc1cc2cc(c1Cl)N(C)C(=O)C[C@H](OC(=O)[C@H](C)N(C)C(=O)CCSC1CC(=O)N(CCCNC(=O)CNC(=O)[C@H](CC(C)C)NC(=O)[C@H](Cc3ccccc3)NC(=O)CNC(=O)CCCCCN3C(=O)CC(SCCC(=O)NCCCC[C@H](NC(C)=O)C(=O)N4CCC[C@H]4C(=O)N[C@@H](CCCCN)C(=O)N[C@@H](CCN)C(=O)N4CCC[C@H]4C(=O)N[C@@H](Cc4ccc(O)cc4)C(=O)N[C@H](C(=O)N[C@@H](CC(C)C)C(=O)O)C(C)(C)C)C3=O)C1=O)[C@]1(C)O[C@H]1[C@H](C)[C@@H]1C[C@@](O)(NC(=O)O1)[C@H](OC)/C=C/C=C(\C)C2 (stereo partly shown) [Compound 32]	7.15	8.30
COc1cc2cc(c1Cl)N(C)C(=O)C[C@H](OC(=O)[C@H](C)N(C)C(=O)CCSC1CC(=O)N(CCCNC(=O)CNC(=O)[C@H](CC(C)C)NC(=O)[C@H](Cc3ccccc3)NC(=O)CNC(=O)CCCCCN3C(=O)CC(SC(C)(C)[C@H](NC(C)=O)C(=O)N4CCC[C@H]4C(=O)N[C@@H](CCCCN)C(=O)N(C)[C@@H](CCCNC(=N)N)C(=O)N4CCC[C@H]4C(=O)N[C@@H](Cc4ccc(O)cc4)C(=O)N[C@H](C(=O)N[C@@H](CC(C)C)C(=O)O)C(C)(C)C)C3=O)C1=O)[C@]1(C)O[C@H]1[C@H](C)[C@@H]1C[C@@](O)(NC(=O)O1)[C@H](OC)/C=C/C=C(\C)C2 (stereo partly shown) [Compound 22]	9.28	7.90
CO[C@H]1C(=O)[C@]2(C)[C@@H](OC)C[C@H]3OC[C@@]3(OC(C)=O)[C@H]2[C@H](OC(=O)c2ccccc2)[C@]2(O)C[C@H](OC(=O)[C@H](OC(=O)CCCCCN3C(=O)CC(SC(C)(C)[C@H](NC(C)=O)C(=O)N4CCC[C@H]4C(=O)N[C@@H](CCCNC(=N)N)C(=O)N[C@@H](CCCNC(=N)N)C(=O)N4CCC[C@H]4C(=O)N[C@@H](Cc4ccc(O)cc4)C(=O)N[C@H](C(=O)N[C@@H](CC(C)C)C(=O)O)C(C)(C)C)C3=O)[C@@H](NC(=O)OC(C)(C)C)c3ccccc3)C(C)=C1C2(C)C (stereo partly shown) [Compound 4]	6.86	8.69
COc1cc2cc(c1Cl)N(C)C(=O)C[C@H](OC(=O)[C@H](C)N(C)C(=O)CCSC1CC(=O)N(CCCNC(=O)CNC(=O)[C@H](CC(C)C)NC(=O)[C@H](Cc3ccccc3)NC(=O)CNC(=O)CCCCCN3C(=O)CC(SCCC(=O)NCCCC[C@H](NC(C)=O)C(=O)N4CCC[C@H]4C(=O)N[C@H](CCCNC(=N)N)C(=O)N[C@@H](CCN)C(=O)N4CCC[C@H]4C(=O)N[C@@H](Cc4ccc(O)cc4)C(=O)N[C@H](C(=O)N[C@@H](CC(C)C)C(=O)O)C(C)(C)C)C3=O)C1=O)[C@]1(C)O[C@H]1[C@H](C)[C@@H]1C[C@@](O)(NC(=O)O1)[C@H](OC)/C=C/C=C(\C)C2 (stereo partly shown) [Compound 30]	7.37	8.37
